Measured values as given in US6525001B1, “Substituted pyrimidine and pyridine herbicides” (Mid-American Commercialization Corporation, priority 1997, dated 2003).

Columns and labels:
Format in all cases: in vivo
Set-up in all cases: key: 0 is no effect; 10 is complete control
soybean (Glycine max) = experiment: Test B pre-/postemergence
Summary of the method: (§1)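 Seeds were planted and sprayed preemergence, while plants at 2 to 18 cm (1- to 4-leaf stage) were sprayed postemergence at the same time, with test chemical in a non-phytotoxic solvent mixture containing surfactant. After twelve to sixteen days in a greenhouse, injury was rated visually against untreated controls on a 0–10 scale.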

[1] = system: giant foxtail (Setaria faberii); experiment: Test B pre-/postemergence
Summary of the method: as §1

[2] = system: crabgrass (Digitaria sanguinalis); experiment: Test B pre-/postemergence; conditions: for Crabgrass plant response rating: Preemergence
Summary of the method: as §1

[3] = system: sugar beet (Beta vulgaris); experiment: Test B pre-/postemergence
Summary of the method: as §1

[4] = system: purple nutsedge (Cyperus rotundus); experiment: Test B pre-/postemergence
Summary of the method: as §1

[5] = system: broadleaf signalgrass (Brachiaria decumbens); experiment: Test B pre-/postemergence; conditions: for B. signalgrass plant response rating: Preemergence
Summary of the method: as §1

[6] = system: velvetleaf (Abutilon theophrasti); experiment: Test B pre-/postemergence
Summary of the method: as §1

wild oat (Avena fatua) = experiment: Test B pre-/postemergence
Summary of the method: as §1

rape (Brassica napus) = experiment: Test B pre-/postemergence
Summary of the method: as §1

[7] = system: blackgrass (Alopecurus myosuroides); experiment: Test B pre-/postemergence; conditions: for Blackgrass plant response rating: Preemergence
Summary of the method: as §1

[8] = system: cocklebur (Xanthium strumarium); experiment: Test B pre-/postemergence; conditions: for Cocklebur plant response rating: Preemergence
Summary of the method: as §1

corn (Zea mays) = experiment: Test B pre-/postemergence; conditions: for Corn plant response rating: Preemergence
Summary of the method: as §1

[9] = system: pigweed (Amaranthus retroflexus); experiment: Test B pre-/postemergence
Summary of the method: as §1

[10] = system: momingglory (Ipomoea hederacea); experiment: Test B pre-/postemergence
Summary of the method: as §1

[11] = system: wheat (Triticum aestivum); experiment: Test B pre-/postemergence
Summary of the method: as §1

[12] = system: bedstraw (Galium aparine); experiment: Test B pre-/postemergence; conditions: for Bedstraw plant response rating: Preemergence
Summary of the method: as §1

[13] = system: bamyardgrass (Echinochloa crus-galli); experiment: Test B flood test
Summary of the method: (§2)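 Plants were grown to the 2-leaf stage before treatment with test chemical, then held in a greenhouse for twelve to sixteen days. Injury was visually rated against untreated controls on a 0–10 scale, where 0 is no effect and 10 is complete control.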

[14] = system: duck salad (Heteranthera limosa); experiment: Test B flood test
Summary of the method: as §2

rice (Oryza sativa) = experiment: Test B flood test
Summary of the method: as §2

[15] = system: smallflower flatsedge (Cyperus difformis); experiment: Test B flood test
Summary of the method: as §2

[16] = Rate 250 g/ha, Postemergence (so in the source)
[17] = Rate 62 g/ha, Postemergence (flood test)
[18] = Rate 125 g/ha, Postemergence, flood test
[19] = Rate 250 g/ha, Postemergence (flood test species)
[20] = Rate 125 g/ha, Postemergence section (flood test species)

Cc1cnc(-c2ccc(C#N)cc2)nc1Cc1cccc(C#N)c1 [Compound 36]
Plant response rating, Soybean (soybean (Glycine max); Rate 62 g/ha, Postemergence): 1
Soybean plant response rating (soybean (Glycine max); Rate 62 g/ha, Preemergence): 0
Soybean plant response rating (soybean (Glycine max); Rate 125 g/ha, Postemergence): 1
Plant response rating, Soybean (soybean (Glycine max); Rate 125 g/ha, Preemergence): 0
Plant response rating, Soybean (soybean (Glycine max); Rate 250 g/ha, Postemergence): 2
Plant response rating, Soybean (soybean (Glycine max); [16]): 1
Plant response rating, Giant foxtail ([1]; Rate 62 g/ha, Postemergence): 0
Giant foxtail plant response rating ([1]; Rate 62 g/ha, Preemergence): 0
Giant foxtail plant response rating ([1]; Rate 125 g/ha, Postemergence): 1
Giant foxtail plant response rating ([1]; Rate 125 g/ha, Preemergence): 0
Plant response rating, Giant foxtail ([1]; Rate 250 g/ha, Postemergence): 1
Plant response rating, Giant foxtail [1, 16]: 0
Plant response rating, Crabgrass ([2]; Rate 62 g/ha, Postemergence): 0
Crabgrass plant response rating ([2]; Rate 62 g/ha): 0
Plant response rating, Crabgrass ([2]; Rate 125 g/ha, Postemergence): 1
Crabgrass plant response rating ([2]; Rate 125 g/ha): 0
Plant response rating, Crabgrass ([2]; Rate 250 g/ha, Postemergence): 1
Plant response rating, Crabgrass [2, 16]: 0
Plant response rating, Sugarbeets ([3]; Rate 62 g/ha, Postemergence): 8
Sugarbeets plant response rating ([3]; Rate 62 g/ha, Preemergence): 0
Sugarbeets plant response rating ([3]; Rate 125 g/ha, Postemergence): 8
Plant response rating, Sugarbeets ([3]; Rate 125 g/ha, Preemergence): 0
Plant response rating, Sugarbeets ([3]; Rate 250 g/ha, Postemergence): 9
Plant response rating, Sugarbeets [3, 16]: 2
Plant response rating, Nutsedge ([4]; Rate 62 g/ha, Postemergence): 0
Nutsedge plant response rating ([4]; Rate 62 g/ha, Preemergence): 0
Nutsedge plant response rating ([4]; Rate 125 g/ha, Postemergence): 0
Nutsedge plant response rating ([4]; Rate 125 g/ha, Preemergence): 0
Plant response rating, Nutsedge ([4]; Rate 250 g/ha, Postemergence): 0
Plant response rating, Nutsedge [4, 16]: 0
Plant response rating, B. signalgrass ([5]; Rate 62 g/ha, Postemergence): 1
B. signalgrass plant response rating ([5]; Rate 62 g/ha): 0
Plant response rating, B. signalgrass ([5]; Rate 125 g/ha, Postemergence): 1
B. signalgrass plant response rating ([5]; Rate 125 g/ha): 0
Plant response rating, B. signalgrass ([5]; Rate 250 g/ha, Postemergence): 1
Plant response rating, B. signalgrass ([5]; Rate 250 g/ha, Postemergence as printed in head r139 (second section for compounds 26-50)): 0
Plant response rating, Velvetleaf ([6]; Rate 62 g/ha, Postemergence): 1
Velvetleaf plant response rating ([6]; Rate 62 g/ha, Preemergence): 0
Velvetleaf plant response rating ([6]; Rate 125 g/ha, Postemergence): 1
Plant response rating, Velvetleaf ([6]; Rate 125 g/ha, Preemergence): 0
Plant response rating, Velvetleaf ([6]; Rate 250 g/ha, Postemergence): 1
Plant response rating, Velvetleaf [6, 16]: 1
Wild oats plant response rating (wild oat (Avena fatua); Rate 62 g/ha, Postemergence): 0
Wild oats plant response rating (wild oat (Avena fatua); Rate 62 g/ha, Preemergence): 0
Wild oats plant response rating (wild oat (Avena fatua); Rate 125 g/ha, Postemergence): 1
Plant response rating, Wild oats (wild oat (Avena fatua); Rate 125 g/ha, Preemergence): 0
Plant response rating, Wild oats (wild oat (Avena fatua); Rate 250 g/ha, Postemergence): 2
Plant response rating, Wild oats (wild oat (Avena fatua); [16]): 0
Plant response rating, Rape (rape (Brassica napus); Rate 62 g/ha, Postemergence): 4
Rape plant response rating (rape (Brassica napus); Rate 62 g/ha, Preemergence): 0
Rape plant response rating (rape (Brassica napus); Rate 125 g/ha, Postemergence): 5
Rape plant response rating (rape (Brassica napus); Rate 125 g/ha, Preemergence): 0
Plant response rating, Rape (rape (Brassica napus); Rate 250 g/ha, Postemergence): 5
Plant response rating, Rape (rape (Brassica napus); [16]): 1
Plant response rating, Blackgrass ([7]; Rate 62 g/ha, Postemergence): 0
Blackgrass plant response rating ([7]; Rate 62 g/ha): 0
Plant response rating, Blackgrass ([7]; Rate 125 g/ha, Postemergence): 0
Blackgrass plant response rating ([7]; Rate 125 g/ha): 0
Plant response rating, Blackgrass ([7]; Rate 250 g/ha, Postemergence): 2
Plant response rating, Blackgrass [7, 16]: 1
Plant response rating, Cocklebur ([8]; Rate 62 g/ha, Postemergence): 1
Cocklebur plant response rating ([8]; Rate 62 g/ha): 0
Plant response rating, Cocklebur ([8]; Rate 125 g/ha, Postemergence): 2
Cocklebur plant response rating ([8]; Rate 125 g/ha): 0
Plant response rating, Cocklebur ([8]; Rate 250 g/ha, Postemergence): 3
Plant response rating, Cocklebur [8, 16]: 0
Plant response rating, Corn (corn (Zea mays); Rate 62 g/ha, Postemergence): 1
Corn plant response rating (corn (Zea mays); Rate 62 g/ha): 0
Plant response rating, Corn (corn (Zea mays); Rate 125 g/ha, Postemergence): 1
Corn plant response rating (corn (Zea mays); Rate 125 g/ha): 0
Plant response rating, Corn (corn (Zea mays); Rate 250 g/ha, Postemergence): 1
Plant response rating, Corn (corn (Zea mays); [16]): 0
Plant response rating, Redroot pigweed ([9]; Rate 62 g/ha, Postemergence): 0
Redroot pigweed plant response rating ([9]; Rate 62 g/ha, Preemergence): 0
Redroot pigweed plant response rating ([9]; Rate 125 g/ha, Postemergence): 4
Redroot pigweed plant response rating ([9]; Rate 125 g/ha, Preemergence): 0
Plant response rating, Redroot pigweed ([9]; Rate 250 g/ha, Postemergence): 8
Plant response rating, Redroot pigweed [9, 16]: 8
Plant response rating, Morningglory ([10]; Rate 62 g/ha, Postemergence): 1
Morningglory plant response rating ([10]; Rate 62 g/ha, Preemergence): 0
Morningglory plant response rating ([10]; Rate 125 g/ha, Postemergence): 2
Morningglory plant response rating ([10]; Rate 125 g/ha, Preemergence): 0
Plant response rating, Morningglory ([10]; Rate 250 g/ha, Postemergence): 2
Plant response rating, Morningglory [10, 16]: 0
Wheat plant response rating ([11]; Rate 62 g/ha, Postemergence): 0
Wheat plant response rating ([11]; Rate 62 g/ha, Preemergence): 0
Wheat plant response rating ([11]; Rate 125 g/ha, Postemergence): 1
Plant response rating, Wheat ([11]; Rate 125 g/ha, Preemergence): 0
Plant response rating, Wheat ([11]; Rate 250 g/ha, Postemergence): 2
Plant response rating, Wheat [11, 16]: 0
Plant response rating, Bedstraw ([12]; Rate 62 g/ha, Postemergence): 6
Bedstraw plant response rating ([12]; Rate 62 g/ha): 0
Plant response rating, Bedstraw ([12]; Rate 125 g/ha, Postemergence): 7
Bedstraw plant response rating ([12]; Rate 125 g/ha): 0
Plant response rating, Bedstraw ([12]; Rate 250 g/ha, Postemergence): 7
Plant response rating, Bedstraw [12, 16]: 0
Plant response rating, Barnyardgrass [13, 17]: 0
Plant response rating, Barnyardgrass [13, 18]: 0
Plant response rating, Barnyardgrass [13, 19]: 0
Plant response rating, Ducksalad [14, 17]: 0
Plant response rating, Ducksalad [14, 18]: 0
Plant response rating, Ducksalad [14, 19]: 1
Plant response rating, Rice (rice (Oryza sativa); [17]): 0
Rice plant response rating (rice (Oryza sativa); [20]): 0
Plant response rating, Rice (rice (Oryza sativa); [19]): 0
Plant response rating, S. Flatsedge [15, 17]: 2
S. Flatsedge plant response rating [15, 20]: 5
Plant response rating, S. Flatsedge [15, 19]: 6
